Laboratory results reported in ChEMBL document CHEMBL2203037, “Synthesis and Anti-influenza A Virus Activity of 2,2-Dialkylamantadines and Related Compounds” (ACS Med Chem Lett, 2012).

Assays:
Influenza A virus [1] = assay: Antiviral activity against amantadine-resistant Influenza A virus (A/PR/8/34 (H1N1)) infected in MDCK cells assessed as virus-induced cytopathic effect measured 3 days post infection by microscopic analysis; type: functional, organism-based; settings: A/Puerto Rico/8/1934(H1N1), 72 h
Influenza A virus [2] = assay: Antiviral activity against amantadine-resistant Influenza A virus (A/PR/8/34 (H1N1)) infected in MDCK cells assessed as virus-induced cytopathic effect by MTS assay; type: functional, organism-based, A/Puerto Rico/8/1934(H1N1)
Influenza B virus [3] = assay: Antiviral activity against amantidine and rimantadine-resistant Influenza B virus (B/HK/5/72) infected in MDCK cells assessed as virus-induced cytopathic effect by MTS assay; type: functional, cell-based; settings: B/Hong Kong/05/1972, MDCK
Influenza B virus [4] = assay: Antiviral activity against amantidine and rimantadine-resistant Influenza B virus (B/HK/5/72) infected in MDCK cells assessed as virus-induced cytopathic effect measured 3 days post infection by microscopic analysis; type: functional, cell-based; settings: B/Hong Kong/05/1972, MDCK, 72 h
[5] = Selectivity index, ratio of CC50 for dog MDCK cells to EC50 for amantadine-resistant Influenza A virus (A/PR/8/34 (H1N1)); type: toxicity, cell-based; settings: read-out: Ratio CC50/EC50
[6] = Influenza A virus, A/Puerto Rico/8/1934(H1N1), MDCK

| SMILES | EC50 (Influenza A virus [1]) | EC50 (Influenza A virus [2]; [6]) | EC50 (Influenza B virus [3]) | EC50 (Influenza B virus [4]) | selectivity ratio [5] | EC50 (Influenza A virus [2]; mdck) |
| --- | --- | --- | --- | --- | --- | --- |
| CCOC(=O)C1=C[C@@H](OC(CC)CC)[C@H](NC(C)=O)[C@@H](N)C1 [OSELTAMIVIR] | 21 µM | – | – | – | – | – |
| CC(C)C1C2CC3CC(C2)CC1(N)C3 (centres undefined) | 5.8 µM | 1.2 µM | > 100 µM | > 100 µM | – | – |
| CC1(C)C2CC3CC(C2)CC1(N)C3 | 15 µM | 10 µM | > 100 µM | > 100 µM | – | – |
| CCC1(CC)C2CC3CC(C2)CC1(N)C3 | 1.2 µM | 1.7 µM | > 100 µM | > 100 µM | > 50 | – |
| CNC12CC3CC(CC(C3)C1(C)C)C2 | 6 µM | 10 µM | > 100 µM | > 100 µM | – | – |
| CC1(C)C2CC3CC(C2)CC1(N1CCCCC1)C3 | > 100 µM | > 100 µM | > 100 µM | > 100 µM | – | – |
| CC12CC3CC1(C)CC(N)(C2)C3(C)C | 4.6 µM | 4.5 µM | > 100 µM | > 100 µM | – | – |
| CCCC1(CCC)C2CC3CC(C2)CC1(N(C)C)C3 | 6 µM | 6.7 µM | > 100 µM | > 100 µM | – | – |
| CC1(C)C2CC3CC(C2)CC1(NCc1ccccc1)C3 | > 100 µM | > 100 µM | > 100 µM | > 100 µM | – | – |
| CN(Cc1ccccc1)C12CC3CC(CC(C3)C1(C)C)C2 | > 100 µM | > 100 µM | > 100 µM | > 100 µM | – | – |
| CC(N)C12CC3CC(CC(C3)C1)C2 (centres undefined) [RIMANTADINE] | 63 µM | – | > 100 µM | > 100 µM | – | – |
| CCNC12CC3CC(CC(C3)C1(C)C)C2 | > 100 µM | > 100 µM | > 100 µM | > 100 µM | – | – |
| NC12CC3CC(CC(C3)C1)C2 [AMANTADINE] | 53 µM | – | > 100 µM | > 100 µM | – | – |
| CCC1(CC)C2CC3CC(C2)CC1(N(C)C)C3 | 0.7 µM | 9.6 µM | > 100 µM | > 100 µM | – | – |
| CC(C)C1C2CC3CC(C2)CC1(N(C)C)C3 (centres undefined) | 5.1 µM | 6 µM | > 50 µM | > 100 µM | – | – |
| NC(=O)c1ncn([C@@H]2O[C@H](CO)[C@@H](O)[C@H]2O)n1 [RIBAVIRIN] | – | – | 8.1 µM | 8 µM | – | 8.2 µM |
| CCC1(CC)C2CC3CC(C2)CC1(NC)C3 | 4 µM | – | > 100 µM | > 100 µM | – | – |
| CC(=O)N[C@H]1[C@H]([C@H](O)[C@H](O)CO)OC(C(=O)O)=C[C@@H]1NC(=N)N [ZANAMIVIR] | 6 µM | – | – | – | – | – |
| CCCC1(CCC)C2CC3CC(C2)CC1(N)C3 | > 100 µM | > 100 µM | > 100 µM | > 100 µM | – | – |
| NC12CC3CC(CC(C3)C13CCCCC3)C2 | 1.1 µM | 0.9 µM | > 100 µM | > 100 µM | – | – |
| CN(C)C12CC3CC(CC(C3)C1(C)C)C2 | 4 µM | 4.8 µM | > 100 µM | > 100 µM | – | – |
| CN(C)C12CC3(C)CC(CC3(C)C1)C2(C)C | 5.8 µM | 5.7 µM | > 100 µM | > 100 µM | – | – |
